Assay results taken from patent publication US20230277508A1, “USE OF COMPOUND AS CYP2E1 INHIBITOR” (SHANGHAI LING XI BIOTECHNOLOGY DEVELOPMENT CO., LTD., priority 2020, published 2023).

Tests used:
Format in all cases: biochemical
[1] = target: T1, human liver microsome CYP2E1 (Homo sapiens, UniProt P05181); assay: Determination of IC50 for a CYP2E1 inhibitory effect (CZX probe, mixed liver microsome); details: for inhibitory effect on CYP2E1 (in words): in vitro, method of Example 8; for IC50: mixed liver microsome of healthy individuals 0.3 mg/mL, 62.5 μM CZX, 1 mM NADPH, 30 min, read-out: IC50 for 2E1 inhibition
T1 construct: metabolic activity of a mixed liver microsome CYP2E1 of a healthy individual; from tissue; host or cells: mixed (pooled) human liver microsomes of healthy individuals
T1 sequence (P05181 whole entry): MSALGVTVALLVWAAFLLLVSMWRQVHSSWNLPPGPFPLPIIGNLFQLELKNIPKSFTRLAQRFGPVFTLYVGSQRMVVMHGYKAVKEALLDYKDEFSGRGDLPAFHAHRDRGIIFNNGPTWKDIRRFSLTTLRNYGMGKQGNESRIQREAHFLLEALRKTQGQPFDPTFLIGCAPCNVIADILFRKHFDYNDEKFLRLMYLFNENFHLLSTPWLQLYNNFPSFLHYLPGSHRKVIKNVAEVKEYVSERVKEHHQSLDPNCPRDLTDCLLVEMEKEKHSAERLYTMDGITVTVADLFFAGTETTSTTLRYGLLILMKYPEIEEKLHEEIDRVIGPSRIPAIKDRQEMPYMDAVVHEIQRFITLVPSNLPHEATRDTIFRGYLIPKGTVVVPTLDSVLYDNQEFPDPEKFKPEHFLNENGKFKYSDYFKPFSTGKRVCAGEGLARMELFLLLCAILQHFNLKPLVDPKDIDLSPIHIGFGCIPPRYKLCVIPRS
Experimental: CZX was used as a probe substrate to detect an inhibitory effect of an inhibitor to be tested on the metabolic activity of a mixed liver microsome CYP2E1 of a healthy individual (IC50: half inhibition concentration; Ki: inhibition constant; the smaller the IC50 and the smaller the Ki, the higher the inhibition intensity of the inhibitor), thereby determining an inhibitory effect of the inhibitor to be tested on the human liver microsome CYP2E1.
An incubation system in a total volume of 100 μL was adopted, including a substrate, an inhibitor of different concentrations, a liver microsomal protein, and phosphate-buffered saline (PBS). The incubation system was pre-incubated in a 37° C. water bath for 5 min, reduced coenzyme was added to allow a reaction for 30 min, and then the reaction was terminated in an ice bath. In a specific experiment, a concentration of an inhibitor can be selected as required.
In this example, the incubation system includes 62.5 μM CZX, 100 mM (pH=7.4) PBS, 0.3 mg/mL liver microsomal protein, and 1 mM NADPH.
In this example, the reaction is terminated with 1 mL of ethyl acetate. In other preferred examples, the reaction may also be terminated with 1 mL of methyl tert-butyl ether (MTBE), 1 mL of diethyl ether, or 100 μL of methanol.

CYP2A6 = target: T2, CYP2A6 (Homo sapiens, UniProt P11509); assay: Determination of selectivity of a CYP2E1 inhibitor: CYP2A6; details: mixed human liver microsome, 2.5 μM coumarin probe; read-out: IC50 for 2A6 inhibition
T2 construct: With a mixed liver microsome of a healthy individual as a research object; from tissue; host or cells: mixed (pooled) human liver microsomes of healthy individuals
T2 sequence (P11509 whole entry): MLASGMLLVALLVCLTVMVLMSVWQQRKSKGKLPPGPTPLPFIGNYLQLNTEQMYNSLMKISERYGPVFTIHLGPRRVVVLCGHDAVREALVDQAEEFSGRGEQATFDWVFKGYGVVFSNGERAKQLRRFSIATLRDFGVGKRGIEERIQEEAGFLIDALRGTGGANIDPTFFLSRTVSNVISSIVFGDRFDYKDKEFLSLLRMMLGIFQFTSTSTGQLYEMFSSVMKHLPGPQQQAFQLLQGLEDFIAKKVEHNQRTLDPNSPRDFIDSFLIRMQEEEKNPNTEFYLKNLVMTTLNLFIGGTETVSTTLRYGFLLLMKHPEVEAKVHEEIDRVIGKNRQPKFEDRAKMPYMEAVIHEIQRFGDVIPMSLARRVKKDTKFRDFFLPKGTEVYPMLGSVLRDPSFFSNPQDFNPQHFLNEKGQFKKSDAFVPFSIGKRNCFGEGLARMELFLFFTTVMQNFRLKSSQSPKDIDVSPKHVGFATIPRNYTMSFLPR
Text: (§1) With a mixed liver microsome of a healthy individual as a research object, probe drugs CYP1A2, CYP2A6, CYP2B6, CYP2C8, CYP2C9, CYP2C19, CYP2D6, CYP2E1, and CYP3A4 were selected to determine an in vitro inhibitory effect of an inhibitor to be tested on the metabolism of the probe drugs CYP1A2, CYP2A6, CYP2B6, CYP2C8, CYP2C9, CYP2C19, CYP2D6, CYP2E1, and CYP3A4 for the mixed liver microsome of the healthy human, and the selectivity of the inhibitor to be tested for a CYP2E1 inhibitory effect was evaluated.
(§2) The CYP1A2 probe is 6.25 μM to 800 μM phenacetin or 27.5 μM to 12,520 μM caffeine; • the CYP2A6 probe is 0.156 μM to 20 μM coumarin or 12.5 μM to 2,000 μM nicotine; • the CYP2B6 probe is 7.8 μM to 500 μM bupropion or 0.25 mM to 30 mM cyclophosphamide; • the CYP2C8 probe is 2.5 μM to 80 μM paclitaxel or 0.125 μM to 128 μM amodiaquine; • the CYP2C9 probe is 31.25 μM to 2,000 μM tolbutamide or 0.1 μM to 200 μM diclofenac; • the CYP2C19 probe is 3.9 μM to 500 μM omeprazole or 1.95 μM to 1,000 μM mephenytoin; • the CYP2D6 probe is 0.625 μM to 96 μM dextromethorphan or 0.0195 μM to 80 μM propafenone; and • the CYP3A4 probe is 0.39 μM to 50 μM midazolam or 1.98 μM to 1,000 μM testosterone.
(§3) An incubation system in a total volume of 100 μL was adopted, including a substrate, an inhibitor of different concentrations, a liver microsomal protein, and PBS. […]

CYP2C9 = target: T3, CYP2C9 (Homo sapiens, UniProt P11712); assay: Determination of selectivity of a CYP2E1 inhibitor: CYP2C9; details: mixed human liver microsome, 250 μM tolbutamide probe; read-out: IC50 of the inhibition for CYP2C9
T3 construct: With a mixed liver microsome of a healthy individual as a research object; from tissue; host or cells: mixed (pooled) human liver microsomes of healthy individuals
T3 sequence (P11712 whole entry): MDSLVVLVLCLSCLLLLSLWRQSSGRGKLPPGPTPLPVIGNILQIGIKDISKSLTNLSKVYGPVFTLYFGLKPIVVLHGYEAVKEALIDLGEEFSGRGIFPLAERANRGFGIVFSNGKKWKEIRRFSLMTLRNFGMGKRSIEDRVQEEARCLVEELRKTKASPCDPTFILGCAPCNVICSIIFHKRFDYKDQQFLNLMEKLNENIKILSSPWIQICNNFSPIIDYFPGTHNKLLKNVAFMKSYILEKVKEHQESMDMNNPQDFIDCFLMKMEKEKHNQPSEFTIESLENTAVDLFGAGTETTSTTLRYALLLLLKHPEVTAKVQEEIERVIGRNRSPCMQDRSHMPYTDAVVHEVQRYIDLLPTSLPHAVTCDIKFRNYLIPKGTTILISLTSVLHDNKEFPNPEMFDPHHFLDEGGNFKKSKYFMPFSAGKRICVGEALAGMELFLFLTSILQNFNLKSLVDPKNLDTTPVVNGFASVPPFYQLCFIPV
Text: as §1, §2, §3

## CCc1nc(COC(=O)c2cccn2Cc2ccncc2)cs1 [SMI1]
[1]
  inhibitory effect on CYP2E1 (in words): significant inhibitory effect
  IC50: 7.99 µM
CYP2A6
  IC50: 55.6 µM
CYP2C9
  IC50: 1.86 µM

## CO/N=C(\C)c1scnc1C [SMI8]
[1]
  inhibitory effect on CYP2E1 (in words): significant inhibitory effect
  IC50: 17 µM

## COc1cccc(/C=C/C(=O)c2scnc2C)c1 [SMI10]
[1]
  inhibitory effect on CYP2E1 (in words): slight inhibitory effect
  IC50: 115 µM
